Test results taken from ChEMBL document CHEMBL5096127, “Using ChEMBL to complement schistosome drug discovery” (2023).
Calls of active or inactive are those of the source. The rule behind the calls is not given here. Square brackets hold non-standard residues; d marks the D form. Peptide text beside a SMILES is read from it. * marks the point of attachment. Benzoyl(4-tBu) = CC(C)(C)c1ccc(C(=O)*)cc1; Lys(Et2) = CCN(CC)CCCC[C@H](N)C(=O)O; Cbz = O=C(OCc1ccccc1)*

What was measured:
[1] = tested on: Schistosoma mansoni; assay: In vitro activity on S. mansoni schistosomula at 10 uM; type: functional, organism-based; design: test concentration 10 uM, temperature 37 degree C, time incubation 72 h; settings: Puerto Rican
[2] = tested on: Schistosoma mansoni; assay: In vitro activity on S. mansoni schistosomula at 50 uM; type: functional, organism-based; design: test concentration 50 uM, temperature 37 degree C, time incubation 72 h; settings: Puerto Rican
[3] = tested on: Schistosoma mansoni; type: functional, Puerto Rican; settings: temperature 37 degree C; tested at 10 uM; Worm movement inhibition (compared to DMSO control)_lower value 0 %; Worm movement inhibition (compared to DMSO control)_upper value 100 %;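 for Worm movement inhibition: in vitro assay using adult worms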
[4] = tested on: Schistosoma mansoni; assay: EC50 on S. mansoni schistosomula; type: functional, organism-based; settings: Puerto Rican

| SMILES | In vitro activity [1] | In vitro activity [2] | Worm movement inhibition [3] | EC50 [4] |
| --- | --- | --- | --- | --- |
| C[C@H]1CCCC(=O)CCCCCc2cc(O)cc(O)c2C(=O)O1 | inactive | inactive |  |  |
| CCc1cc(-c2[nH]nc(C)c2-c2ccc3c(c2)OCCO3)c(O)cc1O | inactive | Active |  |  |
| C[S+]([O-])c1ccc(-c2nc(-c3ccc(F)cc3)c(-c3ccncc3)[nH]2)cc1 (stereo not given) | inactive | inactive |  |  |
| CC(C)c1cccc(=O)c(O)c1 | inactive | inactive |  |  |
| Nc1ccc(-c2ccc(F)cc2)cc1NC(=O)C1CCOCC1 | inactive | inactive |  |  |
| CN(C)CCCn1cc(C2=C(c3c[nH]c4ccccc34)C(=O)NC2=O)c2ccccc21 | inactive | Active |  |  |
| CN1CCC(NC(=O)c2cc(-c3c(O)cc(O)cc3Oc3ccc([N+](=O)[O-])cc3)on2)CC1 | inactive | inactive |  |  |
| Cc1cccc(-c2[nH]c(C(C)(C)C)nc2-c2ccc3c(c2)OCO3)n1 | inactive | inactive |  |  |
| Cc1cccc(-c2nc(Nc3ccncc3)c3ccccc3n2)n1 | Active | Active | 40.28% | 2.62 µM |
| C#Cc1cccc(Nc2ncnc3cc(OC)c(OCCCCCCC(=O)NO)cc23)c1 | inactive | inactive |  |  |
| Fc1ccc(Cl)cc1-c1nc(Nc2ccncc2)c2nccnc2n1 | inactive | inactive |  |  |
| CN1CCN(C(=O)CN[C@H]2C[C@@H]2c2ccc(OCc3ccccc3)cc2)CC1 | inactive | Active |  |  |
| CCN(CC)Cc1ccc2cc(COC(=O)Nc3ccc(C(=O)NO)cc3)ccc2c1 | inactive | inactive |  |  |
| O=C(/C=C/c1ccc2c(ccn2S(=O)(=O)c2ccccc2)c1)NO | inactive | Active |  |  |
| O=C(O[C@H]1[C@@H]2C=CO[C@@H](O[C@@H]3O[C@H](CO)[C@@H](O)[C@H](O)[C@H]3O)[C@@H]2[C@@]2(CO)O[C@@H]12)c1ccc(O)cc1 | inactive | inactive |  |  |
| COc1ccc(-c2c(-c3ccc(O)cc3O)n[nH]c2C)cc1 | inactive | inactive |  |  |
| CC(=O)N1CCc2c(c(Nc3ccc(-c4cnn(C)c4)cc3F)nn2[C@H]2CCOC2)C1 | inactive | inactive |  |  |
| Cc1cc(Nc2cc(N3CCN(C)CC3)nc(Sc3ccc(NC(=O)C4CC4)cc3)n2)n[nH]1 | inactive | Active |  |  |
| NC(=O)c1ccc(-c2nc(-c3ccccn3)c(-c3ccc4c(c3)OCO4)[nH]2)cc1 | inactive | Active |  |  |
| CCCCc1nc2cc(/C=C/C(=O)NO)ccc2n1CCN(CC)CC | inactive | inactive |  |  |
| CCN1/C(=C/C(C)=O)Sc2ccc(O)cc21 | inactive | inactive |  |  |
| CC(C)C[C@@H](C=O)NC(=O)[C@H](CC(C)C)NC(=O)[C@H](CC(C)C)NC(=O)OCc1ccccc1 (Cbz-Leu-Leu-Leu-aldehyde) | inactive | Active |  |  |

| SMILES | In vitro activity [1] | In vitro activity [2] | Worm movement inhibition [3] | EC50 [4] |
| --- | --- | --- | --- | --- |
| CN[C@@H]1C[C@H]2O[C@@](C)([C@@H]1OC)n1c3ccccc3c3c4c(c5c6ccccc6n2c5c31)C(=O)NC4 | Active | Active |  |  |
| Cc1cccc(-c2nn3c(c2-c2ccnc4ccc(C(N)=O)cc24)CCC3)n1 | inactive | inactive |  |  |
| O=C(O)c1ccc(CN2CCC(CN[C@@H]3C[C@H]3c3ccccc3)CC2)cc1 | inactive | inactive |  |  |
| O=C1NCCCc2c1oc1ccc(O)cc21 | inactive | inactive |  |  |
| CSc1cccc(Nc2ncc3cc(-c4c(Cl)cccc4Cl)c(=O)n(C)c3n2)c1 | inactive | inactive |  |  |
| CCN(CC)CCCC[C@H](NC(=O)[C@H](CC(C)C)NC(=O)[C@H](C)NC(=O)[C@H](Cc1ccccc1)NC(=O)c1ccc(C(C)(C)C)cc1)C(=O)N[C@@H](CO)C(=O)OC ({Benzoyl(4-tBu)}-FAL[Lys(Et2)]S-OMe) | inactive | inactive |  |  |
| O=C(CCCCCCC(=O)Nc1cccnc1)NO | inactive | inactive |  |  |
| CC(=O)Nc1ccc(C(=O)Nc2cc(-c3cccs3)ccc2N)cc1 | inactive | inactive |  |  |
| O=C1Nc2cc(Br)ccc2/C1=C1/Nc2ccccc2/C1=N\O [6BIO] | Active | Active | 95.74% |  |
| CC(O)(CC(=O)O)CC(=O)O | inactive | inactive |  |  |
| CCOC(=O)NCCCC(=O)NCCc1ccccc1 | inactive | inactive |  |  |
| Nc1nc(N)c2nc(-c3cccc(O)c3)c(-c3cccc(O)c3)nc2n1 | inactive | inactive |  |  |
| CN(C)Cc1c(C(=O)NCCOc2ccc(C(=O)NO)cc2)oc2ccccc12 | inactive | Active |  |  |
| O=C(CCCCCCNC(=O)c1cnc(N(c2ccccc2)c2ccccc2)nc1)NO | inactive | inactive |  |  |
| O=C(O)C[C@@H]1C(=O)O[C@H]2[C@@H]3OC(=O)c4cc(O)c(O)c(O)c4-c4c(cc(O)c(O)c4O)C(=O)OC[C@H]2O[C@@H](OC(=O)c2cc(O)c(O)c(O)c2)[C@@H]3OC(=O)c2cc(O)c(O)c3c2[C@H]1[C@H](O)C(=O)O3 | inactive | inactive |  |  |
| CNC(=O)c1ccc(Nc2nc(OC3CCCC3)c3c(-c4ccc5nc(C)oc5c4)c[nH]c3n2)c(OC)c1 | inactive | inactive |  |  |
| CC(C)(C)c1cnc(CSc2cnc(NC(=O)C3CCNCC3)s2)o1 | inactive | inactive |  |  |
| Cc1nccc(-c2cn(Cc3ccccc3)c3cnccc23)n1 | inactive | Active |  |  |
| COc1ccc2c(c1)[nH]c1c(C)nccc12 | inactive | inactive |  |  |
| O=C(NC1CCNCC1)c1n[nH]cc1NC(=O)c1c(Cl)cccc1Cl | inactive | inactive |  |  |
| c1ccc(-c2n[nH]cc2-c2ccnc3ccccc23)nc1 | inactive | inactive |  |  |
| Cc1cc(/N=N/c2cc(S(=O)(=O)O)c(C)cc2C)c(N)cc1O | inactive | inactive |  |  |

| SMILES | In vitro activity [1] | In vitro activity [2] | Worm movement inhibition [3] | EC50 [4] |
| --- | --- | --- | --- | --- |
| CNC(=O)c1c(F)cccc1Nc1nc(Nc2cc3c(cc2OC)CCN3C(=O)CN(C)C)nc2[nH]ccc12 | inactive | Active |  |  |
| O=C1NC(=O)/C(=C/c2ccc3nccnc3c2)S1 | inactive | Active |  |  |
| CCN1CCN(Cc2ccc(NC(=O)Nc3ccc(Oc4cc(NC)ncn4)cc3)cc2C(F)(F)F)CC1 | inactive | Active |  |  |
| CC(C)NCCCn1c(Sc2cc3c(cc2I)OCO3)nc2c(N)ncnc21 | inactive | Active |  |  |
| Nc1nc(Nc2ccc(S(N)(=O)=O)cc2)nn1C(=O)c1c(F)cccc1F | inactive | inactive |  |  |
| COc1ncc2cc(C(=O)Nc3cc(C(=O)NCc4cccc(Cl)c4)ccc3Cl)c(=O)[nH]c2n1 | inactive | inactive |  |  |
| O=C(/C=C/c1ccc(CN(CCO)CCc2c[nH]c3ccccc23)cc1)NO | inactive | Active |  |  |
| COc1cc(Nc2ncc(F)c(Nc3ccc4c(n3)NC(=O)C(C)(C)O4)n2)cc(OC)c1OC | inactive | inactive |  |  |
| O=C(CCCCCN1C(=O)c2cccc3cccc(c23)C1=O)NO | inactive | inactive |  |  |
| Cc1nc2c(OCc3ccccc3)cccn2c1CC#N | inactive | inactive |  |  |
| C[C@]12CC[C@H](O)C[C@H]1CC[C@@H]1[C@@H]2CC[C@]2(C)[C@@H](C3=CC(=O)OC3)CC[C@]12O | inactive | Active |  |  |
| O=C(c1ccc(/C=C/c2n[nH]c3ccccc23)cc1)N1CCNCC1 | inactive | Active |  |  |
| Nc1nc2c(ncn2[C@@H]2O[C@H](COP(=O)(O)OP(=O)(O)O)[C@@H](O)[C@H]2O)c(=O)[nH]1 | inactive | inactive |  |  |
| COc1ccc(-c2nc(N)ncc2-c2csc(C)n2)c(O)c1 | inactive | inactive |  |  |
| O=C(NO)c1cnc(NC2(c3ccccc3)CC2)nc1 | inactive | inactive |  |  |
| COc1ncc(-c2ccc3nc(N)n(-c4ccccc4C(F)(F)F)c(=O)c3c2)cc1S(=O)(=O)Nc1ccc(F)cc1F | inactive | Active |  |  |
| N[C@H]1C[C@@H]1c1ccc(-c2cccc(O)c2)cc1 | inactive | Active |  |  |
| COc1ccc(F)c(F)c1C(=O)c1cnc(NC2CCN(S(C)(=O)=O)CC2)nc1N | inactive | inactive |  |  |
| Oc1ccc(Nc2nc(-c3ccc(Cl)cc3)cs2)cc1 | inactive | Active |  |  |
| CC[C@@]1(O)C(=O)OCc2c1cc1n(c2=O)Cc2cc3ccccc3nc2-1 | inactive | Active |  |  |
| Nc1ncnc2c1ncn2[C@@H]1O[C@H](COP(=O)(O)OP(=O)(O)O)[C@@H](O)[C@H]1O | inactive | inactive |  |  |
| CC1(C)Cc2c(sc(NC(=S)NC(=O)c3ccccc3)c2C(=O)O)CO1 | inactive | inactive |  |  |
